Measurements published in US6391595B1, “Transferase and amylase, process for producing the enzymes, use thereof, and gene coding for the same” (Kirin Beer Kabushiki Kaisha, priority 1994, dated 2002).

Columns and labels:
[1] = tested on: transferase derived from the Sulfolobus solfataricus strain KM1; test: Substrate specificity of the transferase (production of α-1,α-1-transferred isomer); format: biochemical
Method: It was investigated whether or not the present enzyme acts on each of the substrates listed in Table 9 below to produce its α-1,α-1-transferred isomer. Here, the activity measurement was performed in the same manner as in Example I-1.

[2] = target: T1, amylase derived from the Sulfolobus solfataricus strain KM1 (Saccharolobus solfataricus, UniProt Q55088); test: Substrate specificity of the purified amylase (hydrolyzing properties, TSK-gel Amide-80 HPLC); format: biochemical; conditions: for Liberated oligosaccharide / Production rate of mono- and disaccharides: 25.0 Units/ml enzyme, 10 mM substrate (amylopectin and soluble starch 2.8%); for Production rate of mono- and disaccharides: 1 Unit = 1 μmol per hour
T1 construct: endogenous in cells; host or cells: Sulfolobus solfataricus strain KM1 cells
T1 sequence (Q55088 1-559): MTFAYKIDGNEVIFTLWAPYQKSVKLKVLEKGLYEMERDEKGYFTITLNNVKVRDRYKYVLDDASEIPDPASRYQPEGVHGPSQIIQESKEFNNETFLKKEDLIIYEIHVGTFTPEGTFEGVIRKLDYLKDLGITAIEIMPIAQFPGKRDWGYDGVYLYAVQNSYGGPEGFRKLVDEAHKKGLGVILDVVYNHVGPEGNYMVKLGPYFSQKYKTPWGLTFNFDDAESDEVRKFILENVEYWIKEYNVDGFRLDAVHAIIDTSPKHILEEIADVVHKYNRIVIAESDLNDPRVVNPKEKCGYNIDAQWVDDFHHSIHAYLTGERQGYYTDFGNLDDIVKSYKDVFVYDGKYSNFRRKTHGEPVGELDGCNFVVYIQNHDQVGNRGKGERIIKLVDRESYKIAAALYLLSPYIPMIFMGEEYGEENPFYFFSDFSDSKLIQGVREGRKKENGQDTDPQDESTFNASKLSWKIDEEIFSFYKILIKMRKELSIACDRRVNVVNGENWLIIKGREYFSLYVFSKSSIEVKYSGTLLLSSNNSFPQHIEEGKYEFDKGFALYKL
Method: The hydrolyzing properties were analyzed by allowing 25.0 Units/ml (in terms of the enzymatic activity when maltotriosyltrehalose is used as the substrate) of the present purified enzyme to act on the various 10 mM substrates (except amylopectin and soluble starch were used as 2.8% solutions) listed in Table 16 below, and the hydrolyzed products were also analyzed.
Incidentally, each enzymatic activity in Table 16 is expressed with such a unit as 1 Unit equals the activity of liberating 1 μmol of each of the monosaccharide and disaccharide per hour.

[3] = target: T2, recombinant novel amylase (Saccharolobus solfataricus, UniProt Q55088); test: Substrate specificity of the recombinant novel amylase (crude enzyme solution); conditions: for Liberated oligosaccharide / Production rate of mono- and disaccharides: 35.2 Units/ml crude enzyme solution, 10 mM substrate (amylopectin and soluble starch 3.0%); for Production rate of mono- and disaccharides: 1 Unit = 1 μmol per hour
T2 sequence (Q55088 1-559): T1 sequence (Q55088 1-559)

[4] = tested on: transferase derived from the Sulfolobus solfataricus strain KM1; test: Influence of activators and inhibitors on glucosyltrehalose-producing activity; format: biochemical
[5] = target: T1, amylase derived from the Sulfolobus solfataricus strain KM1; test: biochemical; format: biochemical
[6] = tested on: debranching enzyme derived from the Sulfolobus solfataricus strain KM1; test: Influence of activators and inhibitors on debranching enzyme activity; format: biochemical; conditions: for Residual activity: Concentration 5 mM
[7] = target: T3, swine pancreatic α-amylase (Sus scrofa, UniProt P00690); test: Hydrolysis of oligosaccharides by pancreatic α-amylase (comparative); format: biochemical; conditions: 1 Unit/ml α-amylase, 10 mM substrate, pH 6.9, 20° C.; for Production rate of di- and trisaccharides: 1 Unit = 1 umol per hour
T3 construct: purchased Sigma Co. A-6255
T3 sequence (P00690 16-511): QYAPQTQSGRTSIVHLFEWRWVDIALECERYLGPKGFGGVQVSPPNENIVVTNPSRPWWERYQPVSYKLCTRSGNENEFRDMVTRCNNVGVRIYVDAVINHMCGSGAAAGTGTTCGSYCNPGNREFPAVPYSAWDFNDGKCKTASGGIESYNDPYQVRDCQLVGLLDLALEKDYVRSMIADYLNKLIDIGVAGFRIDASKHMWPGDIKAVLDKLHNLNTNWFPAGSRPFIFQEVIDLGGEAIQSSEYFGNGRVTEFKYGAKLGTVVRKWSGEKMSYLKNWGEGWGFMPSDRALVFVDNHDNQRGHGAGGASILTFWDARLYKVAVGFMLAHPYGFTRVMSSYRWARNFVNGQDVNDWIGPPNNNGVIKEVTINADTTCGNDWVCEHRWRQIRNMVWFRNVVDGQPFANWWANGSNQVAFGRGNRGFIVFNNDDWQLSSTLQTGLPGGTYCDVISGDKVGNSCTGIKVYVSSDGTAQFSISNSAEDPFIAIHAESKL
Method: Swine pancreatic α-amylase is known to hydrolyze maltooligosaccharide from the reducing end by two or three sugar units [“Denpun.Kanren Toushitsu Kouso Jikken-hou” (“Experimental methods in enzymes for starch and relating saccharides”), p 135, written by Michinori Nakamura and Keiji Kainuma, published by Gakkai-Shuppan-Sentah]. Upon this, a swine pancreatic α-amylase (manufactured by Sigma Co., A-6255) was analyzed the hydrolyzing properties and the hydrolysates as a comparative example for the novel amylase of the present invention. […] The activity of producing disaccharide and trisaccharide was employed as the index of the enzymatic activity, and the analysis was performed by the TSK-gel Amide-80 HPLC analyzing method described in Example II-1.
Incidentally, the enzymatic activity values in Table 17 were expressed with such a unit as 1 Unit equals the activity of liberating 1 umol of each oligosaccharide per hour.

[8] = tested on: transferase derived from the Sulfolobus solfataricus strain KM1; test: Conversion of maltooligosaccharides into α-1,α-1-transferred isomers by purified transferase; format: biochemical; conditions: substrate 100 mM; for Enzyme activity: enzyme 13.5 Units/ml (on maltotriose), 1 Unit = 1 umol α-1,α-1-transferred isomer per hour
Method: As the substrates, maltotriose (G3)-maltoheptaose (G7) were used in a concentration of 100 mM. The purified enzyme obtained in Example I-2 was then allowed to act on each of the above substrates in an amount of 13.5 Units/ml (in terms of the enzyme activity when the substrate is maltotriose) to produce a corresponding α-1,α-1-transferred isomer. Each product was analyzed by the method in Example I-1, and investigated its yield and enzyme activity. Incidentally, in Table 10, each enzymatic activity value was expressed with such a unit as 1 Unit equals the activity of converting the maltooligosaccharide into 1 umol of corresponding α-1,α-1-transferred isomer per hour.

[9] = tested on: recombinant novel transferase; test: Conversion of maltooligosaccharides into α-1,α-1-transferred isomers by transferase from a transformant; format: biochemical, Sulfolobus solfataricus; conditions: 12.7 Units/ml concentrated enzyme solution (on maltotriose); 1 Unit = 1 μmol α-1,α-1-transferred isomer per hour
Method: Maltotriose (G3)-Maltoheptaose (G7) (all manufactured by Hayashibara Baiokemikaru Co.) were used as substrates. The crude enzyme solution obtained in Example I-14 was lyophilized, and then suspended in a 50 mM sodium acetate solution (pH 5.5) to make a concentrated enzyme solution. Each of the substrates was subjected to reaction with 12.7 Units/ml (in terms of the enzymatic activity when maltotriose is used as the substrate) of the concentrated enzyme solution to produce a corresponding α-1,α-1-transferred isomer. Each reaction product was analyzed by the method described in Example I-1 to examine the yield and the enzymatic activity. Incidentally, as to the enzymatic activity shown in Table 38, 1 Unit is defined as an enzymatic activity of transferring maltooligosaccharide to produce 1 μmol per hour of a corresponding α-1,α-1-transferred isomer.

Molecule	Liberated oligosaccharide [2]	Production rate of mono- and disaccharides [2] [units/ml]	Liberated oligosaccharide [3]	Production rate of mono- and disaccharides [3] [units/ml]	Residual activity ([4]; Concentration 5 mM) [%]	Residual activity ([5]; Concentration 5 mM) [%]	Residual activity [6] [%]	Production rate of di- and trisaccharides [7] [units/ml]	Enzyme activity [8] [units/ml]	Enzyme activity [9] [unit/ml]	further results
OC[C@H]1O[C@H](OC[C@H]2O[C@H](OC[C@H]3OC(O)[C@H](O)[C@@H](O)[C@@H]3O)[C@H](O)[C@@H](O)[C@@H]2O)[C@H](O)[C@@H](O)[C@@H]1O (stereo partly shown) [Isomaltotriose]	not decomposed	0	not decomposed	0							Action of the enzyme on the substrate [1]: did not act; Action of the enzyme on the substrate [2]: did not act; Action of the enzyme on the substrate [3]: did not act
[Ca+2].[Cl-].[Cl-] [CaCl2]					93.6	97.1	105.7				Activating or inhibitory effect ([4]; added with the substrate): would not be activated; Activating or inhibitory effect ([5]; added with the substrate): would not be activated; Activating or inhibitory effect ([6]; added with the substrate): would not be activated
OCCS [2-Mercaptoethanol]					100.3	141.7	104.1				
[Cl][Fe]([Cl])[Cl] [FeCl3]					90.0	38.0	39.0				
OCC1OC(OC2OC(CO)C(OC3OC(CO)C(OC4OC(CO)C(OC5OC(CO)C(O)C(O)C5O)C(O)C4O)C(O)C3O)C(O)C2O)C(O)C(O)C1O [Maltotriosyltrehalose, α-D-maltotetraosyl α-D-glucopyranoside]	G3 + Trehalose	25.0	G3 + Trehalose	35.21				0.03			Liberated oligosaccharide [7]: G2 + Glucosyltrehalose
[Cl][Mn][Cl] [MnCl2]					74.2	101.8	91.2				
Maltopentaose [Maltopentaose (G5)]	Glucose + G2 + G3 + G4	1.79	Glucose + G2 + G3 + G4	2.12				6.12	111.3	103.5	Residual activity ([4]; Concentration 0.5 mM): 101.9%; Activity relative to G3 [8]: approximately 8 times; Residual activity ([5]; Concentration 0.5 mM): 105.8%
Maltoheptaose [Maltoheptaose (G7)]	Glucose + G2 + G5 + G6	1.80						4.45	70.5	60.2	Residual activity ([4]; Concentration 0.5 mM): 93.5%; Residual activity ([5]; Concentration 0.5 mM): 129.2%
OC[C@H]1O[C@H](O[C@H]2[C@H](O)[C@@H](O)[C@@H](O[C@H]3[C@H](O)[C@@H](O)C(O)O[C@@H]3CO)O[C@@H]2CO)[C@H](O)[C@@H](O)[C@@H]1O (mixture of isomers) [Maltotriose (G3), Maltotriose]	Glucose + G2	0.30	Glucose + G2	0.27				0	13.5	12.7	Liberated oligosaccharide [7]: not decomposed
O[C@H](CS)[C@H](O)CS (racemic) [Dithiothreitol]					84.5		106.0				remaining activity at 5000 µM ([5]; Concentration 5 mM, read-out: Residual activity): 116%
O=S(=O)([O-])[O-].[Fe+2] [FeSO4]					108.3	73.5	74.1				
[Cl-].[Cl-].[Mg+2] [MgCl2]					111.3	93.5	82.9				
[Cl-].[Cl-].[Co+2] [CoCl2]					88.5	97.1	87.2				
OC[C@H]1O[C@H](O[C@H]2[C@H](O)[C@@H](O)[C@@H](O[C@H]3[C@H](O)[C@@H](O)[C@@H](O[C@H]4[C@H](O)[C@@H](O)C(O)O[C@@H]4CO)O[C@@H]3CO)O[C@@H]2CO)[C@H](O)[C@@H](O)[C@@H]1O (stereo partly shown) [Maltotetraose (G4), Maltotetraose]	Glucose + G2 + G3	0.31	Glucose + G2 + G3	0.26				0.49	76.3	72.5	Residual activity ([4]; Concentration 0.5 mM): 97.4%; Residual activity ([5]; Concentration 0.5 mM): 108.5%; Liberated oligosaccharide [7]: Glucose + G2 + G3
Maltohexaose [Maltohexaose (G6)]	Glucose + G2 + G4 + G5	1.74						4.44	100.9	87.3	Residual activity ([4]; Concentration 0.5 mM): 91.0%; Residual activity ([5]; Concentration 0.5 mM): 123.8%
